Experiment [1] deals with mesenteric rat microcirculation. The experiment in a line: Vasospasm inhibition by vasospasm inhibitor pre-treatment before US-MV (Examples 4, 7). The experiment is classed as in vivo. The note with it: for ability to inhibit the vasospasm: Example 7, conditions of Table 6 (P02, US 400 kPa, 5 min); for Vasospasm occurrence (on 3 animals/condition) / Vasospasm occurrence, percent: P02 1.5E+09 MV/kg, 1 bolus, US 400 kPa, 1 ms ON/10 s OFF, 5 min. As to the method: The model used for these experiments was the mesenteric rat microcirculation. Briefly, anesthetized animals were prepared to allow the visualization of an intestinal loop. The injections were made in the tail vein.
Rats were placed under the inverted microscope (Olympus® X2) equipped with a X20 objectives (mag final: 200). A numeric camera, driven by an open source software, acquired and recorded 30 s video at each time points required, in accordance with the protocol.
US treatment was delivered by an experimental single element transducer (unfocused, plane, 1.5 MHz). Table 1 reports the tested US parameters, including the pulse scheme, the acoustic pressure and the duration of US application, for each protocol. The transducer was focus on the optical objective and placed to respect a working distance of 5 cm.
Image sequences were acquired, before, during and after treatment. Additional acquisitions could be performed every 5 min until 40 min after the initiation of US exposure to monitor the vasospasm resolution.
The model used for these experiments was the mesenteric rat microcirculation. The model and animal preparation were described in example 2.
This study aimed at the evaluation of the inhibition of vasospasm induced by a vasospasm inhibitor compound, in particular the dihydropiridine calcium channel blocker nimodipine.
For this purpose, the rats received a pre-treatment with nimodipine, 10 mins before the combined treatment of gas-filled microvesicles and ultrasound for therapy.
Nimodipine (Sigma Aldrich, Switzerland) powder was first diluted in DMSO (40 mg/ml); the injected dose (1.4 mg/kg) was extemporary prepared in NaCl 0.9% and injected 10 min before the treatment.
The treatment parameters were chosen in accordance with the previous studies to obtain the generation of a vasospasm. P01 formulation was administered for this study.
This study aimed at assessing the efficacy of different pharmacological classes of vasospasm inhibitor drugs currently used in clinic on the vasospasm inhibition.
The duration between pre-treatment and injection of microvesicles and ultrasound treatment was in accordance with the pharmacocinetik pharmacokinetics and pharmacodynamics of each drug.

A further experiment relates to NMU rat tumor model. The experiment in a line: Extravasation of Cy5.5-labeled 150 kDa-dextran in tumour after US-MV treatment (Example 1). The format is in vivo. The method, then: The model used was the NMU rat tumor model. Pre-pubescent rats (female, Sprague Dawley) received a single intra-peritoneal injection of 50 mg/kg of NMU (N-nitroso-N-methylurea, Sigma, Switzerland). Rats developing tumours were enrolled in protocol. In the NMU model, animals can develop several tumours allowing to have tumors receiving microvesicles and ultrasound for therapy; and tumors without ultrasound insonation (called untreated) in the same animal. The rats were anesthetized and placed on dorsal decubitus. A catheter was placed in the tail vein to inject drugs and microvesicles. The US treatment transducer was placed at 5 cm of the tumor (spaced by a water tank). […] To evaluate the efficiency of molecular extravasation, a 150 kDa-dextran labeled with Cy©5.5 fluorophore was injected just before therapeutic treatment with ultrasounds and microvesicles. […] Tumors were then harvested from sacrificed animals; the fluorescence was quantified on image acquired ex vivo (Fluobeam® 700). The fluorescence was quantified by ImageJ software.

The subject of experiment [2] is mesenteric rat microcirculation. The experiment in a line: Vasospasm inhibition by vasospasm inhibitor pre-treatment before US-MV (Examples 4, 7). The experiment is classed as in vivo. The note with it: Nimodipine 1.4 mg/kg, pre-treatment time 10 min; P02 1.5E+09 MV/kg, 1 bolus; US 400 kPa, 1 ms ON/10 s OFF, 5 min.
For a further experiment, the system named is mouse DA3 tumor model. The experiment in a line: Tumour perfusion during US-MV treatment followed by contrast echography (Example 5). The format is in vivo. The note with it: Nimodipine 1.4 mg/kg iv 10 min before; P01 1.3E+09 MV/kg, 4 boluses; US 800 kPa, 1 ms ON/15 s OFF, 25 min. The method, then: The mouse DA3 tumor model was used in these studies. The US treatment was delivered by the Verasonic® system (probe P4-2). The probe was placed at 5 cm from the tumor (spaced by a water tank, filled with degassed water). […] The perfusion of each tumor was followed by the echographic signal of microvesicles (Verasonic® system). The signal was recorded and post-analysed with Vuebox® software. […] The expression “replenishment time” indicates the time required to supply the area under the ultrasound beam with the vessel with fresh gas-filled microvesicles, after the substantial destruction of MV caused by each US pulse. The expression “MV destruction” corresponds to the loss of integrity or structure of MV caused by acoustic activation of MV by US. This can be provoked for example by MV collapse or gas dissolution and monitored by acoustic signal follow up. All parameters relative to microvesicles and ultrasound treatment were fixed (see Table 4). The therapeutic insonation parameters were chosen in accordance with the previous studies, to obtain a vascular permeabilization in the DA3 tumor.

In a further experiment the test system is NMU tumor. The experiment is described as follows: Tumour perfusion during US-MV treatment followed by contrast echography (Example 6). The format is in vivo, rat. The note with it: Nimodipine 1.4 mg/kg iv 10 min before; P02 1.2E+09 MV/kg, 4 boluses; US 600 kPa, 1 ms ON/15 s OFF, 20 min. The method, then: Pre-pubescent rats (female, Sprague Dawley) received a single intra-peritoneal injection of 50 mg/kg of NMU (N-nitroso-N-methylurea, Sigma, Switzerland). […] Serial bolus injections of gas-filled microvesicles (as specified in Table 5) were performed and the tumor was submitted to therapeutic insonation (frequency, acoustic pressure and pulse characteristics as specified in the subsequent examples). The perfusion of tumor during treatment was assessed as described in Example 5. All parameters relative to microvesicles and ultrasound treatment were fixed (see Table 5). The therapeutic insonation parameters were chosen in accordance with the previous studies, to obtain a vascular permeabilization in the NMU tumor.

Where [3] appears, read: Mg^2+ 300 mM, pre-treatment time 0 min.
[4] abbreviates: Prazosin 0.5 mg/kg, pre-treatment time 10 min.
The mark [5] stands for this setting: Trinitrine (dose not given), pre-treatment time 1 min.

As for `C[C@H](CS)C(=O)N1CCC[C@H]1C(=O)O` [Captoprill, Captopril], the “ability to inhibit the vasospasm” value in experiment [1] is “did not show any relevant inhibiting activity”.

With `[Mg+2]` [Mg^2+, magnesium], in experiment [1], the “ability to inhibit the vasospasm” value is recorded as “good ability to inhibit the vasospasm”. Also, in experiment [1] (setting [3]), the “Vasospasm occurrence (on 3 animals/condition)” value is 0/3 and the “Vasospasm occurrence, percent” value turned out to be 0%.

Regarding `COc1cc2nc(N3CCN(C(=O)c4ccco4)CC3)nc(N)c2cc1OC` [Prazosin], the “ability to inhibit the vasospasm” value in experiment [1] is “lower ability”. For the same compound, in experiment [1] (setting [4]), the “Vasospasm occurrence (on 3 animals/condition)” value was 1/3 and the “Vasospasm occurrence, percent” value was 33%.

For `COCCOC(=O)C1=C(C)NC(C)=C(C(=O)OC(C)C)C1c1cccc([N+](=O)[O-])c1` (stereo not shown) [Nimodipine], the “mean fluorescence value (Cy5.5 dextran in tumour, ex vivo)” value with NMU rat tumor model (fifth group: VI pre-administration (Nimodipine 1.4 mg/kg, 10 min before) then US-MV, 600 kPa, 1 ms ON/10 s OFF, 20 min) is listed as 2060 RFU/px/ms. Besides, the “mean fluorescence signal (Cy5.5 dextran in tumour, ex vivo)” value with NMU rat tumor model (third group: VI+MV, no US, Nimodipine 1.4 mg/kg 10 min before, MV P02 or Definity 8 μl gas/kg in 4 boluses) is recorded as 1030 RFU/px/ms. The “Vasospasm occurrence (on 3 animals/condition)” value in experiment [2] is recorded as 0/3. For the same compound, the “Vasospasm occurrence, percent” value in experiment [2] is on record as 100%. Moreover, the “Decrease of perfusion in tumor, percent” value is listed as 0% with mouse DA3 tumor model and “(100%)” with NMU tumor.

Consider `O=[N+]([O-])OCC(CO[N+](=O)[O-])O[N+](=O)[O-]` [Trinitrine], for which the “ability to inhibit the vasospasm” value in experiment [1] is “good ability to inhibit the vasospasm”. In experiment [1] (setting [5]), the “Vasospasm occurrence (on 3 animals/condition)” value is reported as 0/3 and the “Vasospasm occurrence, percent” value is reported as “(0%)”.

Values taken from patent US20230226184A1, “IMPROVEMENTS IN ULTRASOUND-MEDIATED THERAPY” (Bracco Suisse SA, priority 2020, published 2023).
